For 15 compounds, Kd and IC50 results are on record in patent publication US20240190849A1, “AMINOPYRIMIDINE COMPOUNDS AND METHODS OF THEIR USE” (TYRA BIOSCIENCES, INC., priority 2021, published 2024).

Where only a bound is given, the exact number is not on record here.

As a reminder, the Kd is the constant that tells how readily two partners part at equilibrium. Lower therefore signals a tighter complex. Usually IC50 stands for the midpoint of a concentration-inhibition curve.

The target in one experiment is T1, FGFR3 (V555M) (Homo sapiens, UniProt P22607, V555M).
T1 construct: made in house; host or cells: E. coli derived from BL21, infected with T7 phage
T1 sequence (P22607 23-806 V555M): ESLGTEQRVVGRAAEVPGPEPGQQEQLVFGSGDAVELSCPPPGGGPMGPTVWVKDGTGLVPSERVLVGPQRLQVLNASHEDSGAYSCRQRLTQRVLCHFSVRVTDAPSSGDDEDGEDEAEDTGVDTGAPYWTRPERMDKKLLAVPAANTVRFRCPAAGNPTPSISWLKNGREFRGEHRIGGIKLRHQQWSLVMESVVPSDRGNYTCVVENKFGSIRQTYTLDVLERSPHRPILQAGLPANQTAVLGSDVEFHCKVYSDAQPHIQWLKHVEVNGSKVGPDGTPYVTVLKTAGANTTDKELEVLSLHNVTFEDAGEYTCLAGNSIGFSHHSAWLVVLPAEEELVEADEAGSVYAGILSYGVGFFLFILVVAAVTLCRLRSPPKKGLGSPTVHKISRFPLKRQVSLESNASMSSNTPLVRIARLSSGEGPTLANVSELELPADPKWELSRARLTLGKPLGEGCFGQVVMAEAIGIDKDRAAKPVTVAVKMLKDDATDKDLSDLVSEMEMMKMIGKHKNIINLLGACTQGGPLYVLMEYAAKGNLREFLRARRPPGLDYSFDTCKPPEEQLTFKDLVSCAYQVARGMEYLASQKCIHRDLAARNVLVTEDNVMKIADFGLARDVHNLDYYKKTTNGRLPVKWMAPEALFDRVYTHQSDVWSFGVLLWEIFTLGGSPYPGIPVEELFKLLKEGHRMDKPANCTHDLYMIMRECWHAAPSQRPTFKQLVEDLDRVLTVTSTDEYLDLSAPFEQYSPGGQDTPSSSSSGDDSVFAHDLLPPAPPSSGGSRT
The experiment is described as follows: Kinase binding assay (kinase-tagged T7 phage, affinity beads, qPCR readout), FGFR3 (V555M). Particulars: FGFR binding data. In short, it runs like this:
(§1)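 Competition binding: T7 phage-tagged kinases incubated with immobilized biotinylated ligand beads and test compound (11-point 3-fold series, 0.9% DMSO final) for 1 h at room temperature. Bound kinase eluted and quantified by qPCR. Kd from Hill equation fit, slope fixed at −1.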
(In general: In qPCR the cycle at which signal appears reflects the starting amount.)

Experiment [1] deals with UM-UC-14 (Bladder Cancer), FGFR3(S249C). The experiment is described as follows: Cancer cell viability assay (Cell Titer-Glo), UM-UC-14. It counts as cell-based. Particulars: UMUC14, UM-UC-14 cells, 72 hours. In outline: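 Cells seeded at 10,000/well in RPMI1640 with 10% FBS, then exposed 72 h at 37° C. to a 9-point 10-fold dilution series from 30 μM, in triplicate. Viability read as ATP luminescence (CellTiter-Glo 2.0) as percent of DMSO control; IC50 from 4-parameter sigmoidal fit.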
In general terms: ATP-based viability assays read luminescence as a measure of living cells.

The target of another experiment is T2, FGFR1 (Homo sapiens, UniProt P11362).
T2 construct: made in house; host or cells: E. coli derived from BL21, infected with T7 phage
T2 sequence (P11362 22-822): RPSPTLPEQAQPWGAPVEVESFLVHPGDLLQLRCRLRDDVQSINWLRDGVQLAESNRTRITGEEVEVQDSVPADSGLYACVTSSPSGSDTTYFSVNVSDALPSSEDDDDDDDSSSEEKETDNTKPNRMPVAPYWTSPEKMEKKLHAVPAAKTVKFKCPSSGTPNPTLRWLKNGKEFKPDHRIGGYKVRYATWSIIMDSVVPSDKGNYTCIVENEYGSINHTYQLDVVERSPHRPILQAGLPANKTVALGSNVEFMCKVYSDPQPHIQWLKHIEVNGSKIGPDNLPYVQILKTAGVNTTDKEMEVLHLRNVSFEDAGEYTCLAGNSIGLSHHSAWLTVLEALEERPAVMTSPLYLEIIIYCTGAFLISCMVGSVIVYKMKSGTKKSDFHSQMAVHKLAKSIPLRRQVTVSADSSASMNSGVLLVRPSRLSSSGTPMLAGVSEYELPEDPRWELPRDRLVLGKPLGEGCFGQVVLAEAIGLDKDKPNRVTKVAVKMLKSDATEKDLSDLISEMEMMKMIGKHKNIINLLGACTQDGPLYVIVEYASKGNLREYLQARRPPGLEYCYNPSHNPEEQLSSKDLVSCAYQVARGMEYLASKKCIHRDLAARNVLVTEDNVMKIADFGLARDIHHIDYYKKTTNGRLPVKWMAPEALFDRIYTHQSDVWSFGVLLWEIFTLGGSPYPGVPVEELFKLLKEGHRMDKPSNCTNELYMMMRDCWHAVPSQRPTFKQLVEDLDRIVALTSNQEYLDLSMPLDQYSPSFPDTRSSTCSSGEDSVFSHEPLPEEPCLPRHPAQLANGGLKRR
In words: Kinase binding assay (kinase-tagged T7 phage, affinity beads, qPCR readout), FGFR1. Conditions: FGFR binding data. In outline: as §1

The test system of experiment [2] is KG-1 (Acute Myeloid Leukemia), FGFR1OP2-FGFR1 fusion. The experiment is described as follows: Cancer cell viability assay (Cell Titer-Glo), KG-1. It is filed as cell-based. Particulars: Homo sapiens, KG-1 cells, 72 hours. The text has this:
(§2) RT112/84, UM-UC-14, SNU-16 and KG-1 Cancer Cell Line Cell Viability Assays
(§3) To detect the change of intracellular ATP by Cell Titer-Glo@ and to evaluate the inhibitory effect of the compounds on cancer cell lines by determining the in vitro IC50 value of the compounds.
(§4) Cell Titer-Glo@ 2.0 Luminescent cell viability assay reagent was purchased from Promega (Madison, WI). RT112/84, SNU-16, and KG-1 cell lines were purchased from American Type Culture Collection (Manassas, VA). UM-UC-14 cell line was purchased from Sigma (St. Louis, MO). RT112/84, UM-UC-14, SNU-16, and KG-1 cells were cultured in RPMI1640 media supplemented with 10% fetal bovine serum. Cultures were maintained at 37° C. in a humidified atmosphere of 5% CO2 and 95% air.
(§5) Cell Viability Assay Procedure: Cells were plated in 96-well clear bottom/white plates (Corning #3903) at 10,000 cells/well in 100 μl of media, incubated overnight. The next day, test compound DMSO stock solutions were made at 10 mM and 2 μM final concentration. Compounds were then added to cells in a 9-dose, […] dilution series starting at 30 μM with an HP 300e Digital Dispenser (each dose was applied in triplicate). DMSO was backfilled to each well up to 301 nL total volume of test compound+DMSO, and a total of 301 nL DMSO was added to a control/no test compound well in triplicate. The cells in cell culture plates were incubated with the compounds at 37° C. and 5% CO2 for 72 hours. Then 50 μl of Cell Titer Glo 2.0 reagent was added to each well of the cell culture plates. The contents were covered from light and mixed on an orbital shaker at room temperature for 10 min. Luminescence was recorded by a Synergy H1 Microplate Reader (Biotek, Winooski, VT). Cells were assessed as a percentage of DMSO only treated control cells. Curves were plotted and IC50 values were calculated using the GraphPad Prism 8 program based on a sigmoidal dose-response equation (4 parameter).

The target in the next experiment is T3, FGFR2 (Homo sapiens, UniProt P21802).
T3 construct: made in house; host or cells: E. coli derived from BL21, infected with T7 phage
T3 sequence (P21802 22-821): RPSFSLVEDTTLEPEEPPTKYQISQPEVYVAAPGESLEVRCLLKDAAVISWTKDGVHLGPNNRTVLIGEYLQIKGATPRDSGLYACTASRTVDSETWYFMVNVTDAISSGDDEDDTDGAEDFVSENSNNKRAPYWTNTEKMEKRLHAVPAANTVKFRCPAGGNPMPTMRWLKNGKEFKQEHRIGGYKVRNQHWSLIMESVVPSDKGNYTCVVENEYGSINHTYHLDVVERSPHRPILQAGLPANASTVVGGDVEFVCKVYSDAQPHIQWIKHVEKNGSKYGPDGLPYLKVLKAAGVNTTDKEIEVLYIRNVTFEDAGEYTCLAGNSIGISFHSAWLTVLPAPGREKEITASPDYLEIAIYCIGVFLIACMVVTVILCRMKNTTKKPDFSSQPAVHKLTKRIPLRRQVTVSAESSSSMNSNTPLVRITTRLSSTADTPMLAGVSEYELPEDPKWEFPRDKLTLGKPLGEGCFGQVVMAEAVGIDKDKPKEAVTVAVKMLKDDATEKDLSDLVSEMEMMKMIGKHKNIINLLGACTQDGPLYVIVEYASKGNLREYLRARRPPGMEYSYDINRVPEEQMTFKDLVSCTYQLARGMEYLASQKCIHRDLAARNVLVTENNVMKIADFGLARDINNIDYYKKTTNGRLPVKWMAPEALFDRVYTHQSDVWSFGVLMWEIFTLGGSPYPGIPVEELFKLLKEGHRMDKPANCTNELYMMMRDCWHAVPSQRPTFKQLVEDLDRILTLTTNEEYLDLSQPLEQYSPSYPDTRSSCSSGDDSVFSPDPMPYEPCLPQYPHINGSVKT
The experiment is described as follows: Kinase binding assay (kinase-tagged T7 phage, affinity beads, qPCR readout), FGFR2. Conditions: FGFR binding data. In short, it runs like this: as §1

The target in a further experiment is T4, FGFR3 (Homo sapiens, UniProt P22607).
T4 construct: made in house; host or cells: E. coli derived from BL21, infected with T7 phage
T4 sequence (P22607 23-806): as the sequence (P22607 23-806 V555M) above, with M533V counted along it
In words: Kinase binding assay (kinase-tagged T7 phage, affinity beads, qPCR readout), FGFR3. Particulars: FGFR binding data. In outline:
as §1

The subject of experiment [3] is RT112/84 (Bladder Cancer), FGFR3-TACC3 fusion. In words: Cancer cell viability assay (Cell Titer-Glo), RT112/84. It counts as cell-based. Particulars: Homo sapiens, RT112/84 cells, 72 hours.
Description: as §2, §3, §4, §5

Regarding `C=CC(=O)Nc1ccc2c(c1)c(C)cn2-c1nc(Nc2ccc(OC)c(OC)c2)ncc1Cl` [Example 23, N-[1-[5-chloro-2-(3,4-dimethoxyanilino)pyrimidin-4-yl]-3-methyl-indol-5-yl]prop-2-enamide], the Kd at FGFR3 (V555M), on FGFR1, on FGFR2 and at FGFR3 was 0.1 to 100 nM in each case. Further, the IC50 in experiment [1], in experiment [2] and in experiment [3] was 0.1 to 100 nM throughout.
As to `C=CC(=O)Nc1ccc2c(c1)c(C)cn2-c1nc(Nc2ccc(N3CCOCC3)cc2)ncc1Cl` [Example 24, N-[3-methyl-1-[5-chloro-2-(4-morpholinoanilino)pyrimidin-4-yl]indol-5-yl]prop-2-enamide], the equilibrium dissociation constant (Kd) at FGFR3 (V555M), on FGFR1, on FGFR2 and at FGFR3 was 0.1 to 100 nM in each case. The IC50 in experiment [1], in experiment [2] and in experiment [3] was 0.1 to 100 nM throughout.
For `C=CC(=O)Nc1ccc2c(c1)c(C)cn2-c1nc(Nc2cnn(C)c2)ncc1Cl` [Example 25, N-[1-[5-chloro-2-[(1-methylpyrazol-4-yl)amino]pyrimidin-4-yl]-3-methyl-indol-5-yl]prop-2-enamide], the Kd on FGFR3 (V555M), at FGFR1, at FGFR2 and at FGFR3 was 0.1 to 100 nM each time. The IC50 in experiment [1], in experiment [2] and in experiment [3] was 0.1 to 100 nM each time.
Take `C=CC(=O)Nc1ccc2c(c1)c(C)cn2-c1nc(Nc2cn(C)nc2OC)ncc1Cl` [Example 26, N-[1-[5-chloro-2-[(3-methoxy-1-methyl-pyrazol-4-yl)amino]pyrimidin-4-yl]-3-methyl-indol-5-yl]prop-2-enamide]: the Kd on FGFR3 (V555M), on FGFR1, at FGFR2 and at FGFR3 was 0.1 to 100 nM each time. The IC50 was 0.1 to 100 nM in experiment [1], 0.1 to 100 nM in experiment [2] and 100 to 250 nM in experiment [3].
With `C=CC(=O)Nc1ccc2c(-c3nc(Nc4ccc(N5CCOCC5)cc4)ncc3Cl)cn(C)c2c1` [Example 27, N-[3-[5-chloro-2-(4-morpholinoanilino)pyrimidin-4-yl]-1-methyl-indol-6-yl]prop-2-enamide], the dissociation constant (Kd) at FGFR3 (V555M), at FGFR1, at FGFR2 and on FGFR3 was 0.1 to 100 nM each time. The IC50 in experiment [1], in experiment [2] and in experiment [3] was 0.1 to 100 nM in each case.
In the case of `C=CC(=O)Nc1ccc2c(c1)c(C)cn2-c1nc(Nc2cn(C)cn2)ncc1Cl` [Example 28, N-[1-[5-chloro-2-[(1-methylimidazol-4-yl)amino]pyrimidin-4-yl]-3-methyl-indol-5-yl]prop-2-enamide], the dissociation constant Kd on FGFR3 (V555M), at FGFR1, on FGFR2 and at FGFR3 was 0.1 to 100 nM in each case. Besides, the IC50 in experiment [1] is 0.1 to 100 nM; in experiment [2] it was 0.1 to 100 nM; in experiment [3] it was more than 1000 nM.
For `C=CC(=O)Nc1ccc2c(-c3nc(Nc4cnn(C)c4)ncc3Cl)cn(C)c2c1` [Example 30, N-[3-[5-Chloro-2-[(1-methylpyrazol-4-yl)amino]pyrimidin-4-yl]-1-methyl-indol-6-yl]prop-2-enamide], the dissociation constant (Kd) on FGFR3 (V555M), on FGFR1, at FGFR2 and on FGFR3 was 0.1 to 100 nM each time. Moreover, the IC50 in experiment [1], in experiment [2] and in experiment [3] was 0.1 to 100 nM in each case.
Consider `C=CC(=O)Nc1ccc2c(c1)c(C)cn2-c1nc(Nc2cnn(C3CCN(C4COC4)CC3)c2)ncc1Cl` [Example 34, N-[1-[5-Chloro-2-[[1-[1-(oxetan-3-yl)-4-piperidyl]pyrazol-4-yl]amino]pyrimidin-4-yl]-3-methyl-indol-5-yl]prop-2-enamide], for which the dissociation constant Kd at FGFR3 (V555M), on FGFR1, on FGFR2 and on FGFR3 was 0.1 to 100 nM throughout. Moreover, the IC50 in experiment [1], in experiment [2] and in experiment [3] was 0.1 to 100 nM in each case.
Regarding `C=CC(=O)Nc1ccc2c(c1)c(C)cn2-c1nc(Nc2cn(C)nc2C)ncc1Cl` [Example 35, N-[1-[5-chloro-2-[(1,3-dimethylpyrazol-4-yl)amino]pyrimidin-4-yl]-3-methyl-indol-5-yl]prop-2-enamide], the Kd at FGFR3 (V555M), at FGFR1, at FGFR2 and on FGFR3 was 0.1 to 100 nM in each case. Besides, the IC50 in experiment [1], in experiment [2] and in experiment [3] was 0.1 to 100 nM each time.
For `C=CC(=O)Nc1ccc2c(c1)c(C)cn2-c1nc(Nc2cnn(C)c2C)ncc1Cl` [Example 40, N-[1-[5-chloro-2-[(1,5-dimethylpyrazol-4-yl)amino]pyrimidin-4-yl]-3-methyl-indol-5-yl]prop-2-enamide], the Kd on FGFR3 (V555M), at FGFR1, at FGFR2 and on FGFR3 was 0.1 to 100 nM throughout. Further, the IC50 in experiment [1], in experiment [2] and in experiment [3] was 0.1 to 100 nM in each case.
On to `C=CC(=O)Nc1ccc2c(c1)c(C)cn2-c1nc(Nc2cnn(C3CCN(CC)CC3)c2)ncc1Cl` [Example 42, N-[1-[5-chloro-2-[[1-(1-ethyl-4-piperidyl)pyrazol-4-yl]amino]-pyrimidin-4-yl]-3-methyl-indol-5-yl]prop-2-enamide], for which the Kd at FGFR3 (V555M), on FGFR1, at FGFR2 and on FGFR3 was 0.1 to 100 nM in each case. Further, the IC50 in experiment [1], in experiment [2] and in experiment [3] was 0.1 to 100 nM throughout.
On to `C=CC(=O)Nc1ccc2c(c1)c(C)cn2-c1nc(Nc2ccnn2C)ncc1Cl` [Example 55, N-[1-[5-chloro-2-[(2-methylpyrazol-3-yl)amino]pyrimidin-4-yl]-3-methyl-indol-5-yl]prop-2-enamide], for which the Kd on FGFR3 (V555M), at FGFR1, at FGFR2 and at FGFR3 was 0.1 to 100 nM in each case. For the same compound, the IC50 in experiment [1], in experiment [2] and in experiment [3] was 0.1 to 100 nM throughout.
For `C=CC(=O)Nc1ccc2c(-c3nc(Nc4ccc(N5CCOCC5)cc4)ncc3F)cn(C)c2c1` [Example 57, N-[3-[5-Fluoro-2-(4-morpholinoanilino)pyrimidin-4-yl]-1-methyl-indol-6-yl]prop-2-enamide], the Kd at FGFR3 (V555M), on FGFR1, at FGFR2 and on FGFR3 was 0.1 to 100 nM throughout. Moreover, the IC50 in experiment [1], in experiment [2] and in experiment [3] was 0.1 to 100 nM in each case.
With `C=CC(=O)Nc1ccc2c(c1)c(C)cn2-c1nc(Nc2ccc(N3CCOCC3)cc2)ncc1F` [Example 67, N-[1-[5-Fluoro-2-(4-morpholino-anilino)pyrimidin-4-yl]-3-methyl-indol-5-yl]prop-2-enamide], the Kd on FGFR3 (V555M), at FGFR1, at FGFR2 and on FGFR3 was 0.1 to 100 nM in each case. The IC50 in experiment [1], in experiment [2] and in experiment [3] was 0.1 to 100 nM in each case.
In the case of `C=CC(=O)Nc1ccc2c(c1)c(C)cn2-c1nc(Nc2ccn(C)n2)ncc1C` [Example 81, N-[3-methyl-1-[5-methyl-2-[(1-methylpyrazol-3-yl)amino]pyrimidin-4-yl]indol-5-yl]prop-2-enamide], the Kd at FGFR3 (V555M), at FGFR1, on FGFR2 and at FGFR3 was 0.1 to 100 nM in each case. Further, the half-inhibitory concentration (IC50) in experiment [1], in experiment [2] and in experiment [3] was 0.1 to 100 nM in each case.
